{
  "source": "patent US20070105758A1",
  "about": "(priority 2005, published 2007)",
  "origin": "cited, not measured here",
  "conditions": "oral route in sensitive individuals",
  "data": [
    {"smiles": "NCCc1c[nH]cn1", "note": "[histamine]", "values": [
      {"measurement": "histamine concentration known to be biologically active", "value": "> 5", "unit": "nM"}
    ]}
  ]
}
